Like-named read-outs stand apart in the source and are kept apart here.
Target: T1, integrin alpha5beta1 (Homo sapiens, UniProt P05556+P08648)
T1 construct: The integrin alpha5beta1 extracellular domain Fc-fusion was expressed and purified; made in house
Experiment: Alpha5beta1-Fibronectin binding assay (competitive ELISA)
Description: The optimal concentrations of integrin and ligand were selected from ELISA binding studies with variable concentrations of both to obtain optimal signal noise ratio for further studies. IC50 studies were performed with fixed concentration of ligand and integrin and a serial dilution of inhibitor. The plates were measured with SpectraMax Plus reader (Molecular Devices). The resulting inhibition curves were analyzed using SoftMaxPro 4.0 software, the turning point describes the IC50 value.
Fibronectin and Vitronectin were purchased from Sigma, fibrinogen from Calbiochem. (EMD Biosciences, Darmstadt, Germany) The integrin alpha5beta1 extracellular domain Fc-fusion was expressed and purified as described in (Coe, 2001, JBC, 276, 35854). Integrins alphavbeta3 and alphavbeta5 were purchased from Chemicon (Chemicon Europe, Germany) and alphaIIbbeta3 form Kordia (Kordia Life Science, Leiden, Netherlands)
Fibronectin was diluted with coating buffer (15 mM Na2CO3, 35 mM NaHCO3, pH9.6) and coated with 100 μL/well to Nunc-Immuno maxisorp plates (Nalge Nunc Europe Ltd) over night at 4° C. After discarding the coating solution plates were washed 3 times with buffer 1 ([…], pH7.6, 150 mM NaCl, 1 mM […], 1 mg/mL BSA) and blocked with 100 μL blocking buffer (3% BSA in PBS 0.1% Tween20) for 1 hour at room temperature. After washing the blocked plates (3 times) with buffer 1, integrin (50 μL) and either inhibitor (serial dilution in buffer 1) or buffer 1 (50 μL) were added to the wells and incubated for one hour at RT. Plates were then washed (3 times) with buffer 1 and incubated with 100 μL of anti-human-Fc-HRP antibody conjugate (Sigma-Aldrich, Taufkirchen, Germany) in buffer 1 for 1 hour at RT. After additional washing steps (3 times) with buffer 1 50 μL of HRP substrate solution TMB (Seramun, Germany) were added to the wells. Colour development was stopped after 3-5 minutes with 50 μL 1M H2SO4. The developed colour was measured at 450 nm and analyzed as described above.

[1] = inhibition of integrin binding to fibronectin, read-out: IC50 alpha5beta1 in nM
[2] = method of section 1.1, read-out: Group (binding activities to integrin alpha5beta1)

Row | Structure (SMILES) | IC50 [1] [nM] | IC50 [2] [nM]
1 | Cc1cc(C)c(S(=O)(=O)N[C@@H](CNC(=O)CO[C@@H]2C[C@@H](CNc3ccccn3)N(S(=O)(=O)Cc3ccccc3)C2)C(=O)O)c(C)c1 [Compound 15, 3-{2-[1-Phenylmethanesulfonyl-5-(pyridin-2-ylaminomethyl)-pyrrolidin-3-yloxy]-acetylamino}-2-(2,4,6-trimethyl-benzenesulfonylamino)-propionic acid] | 11.3 | 10 to 500
2 | Cc1cc(C)c(S(=O)(=O)N[C@@H](CNC(=O)CO[C@@H]2C[C@@H](CNc3ccccn3)N(CCCc3ccccc3)C2)C(=O)O)c(C)c1 [Compound 18, 3-{2-[1-(3-Phenyl-propyl)-5-(pyridin-2-ylaminomethyl)-pyrrolidin-3-yloxy]-acetylamino}-2-(2,4,6-trimethyl-benzenesulfonylamino)-propionic acid] |  | 10 to 500
3 | Cc1cc(C)c(S(=O)(=O)N[C@@H](CNC(=O)CO[C@@H]2C[C@@H](CNc3ccccn3)N(C(=O)NC3CCCC3)C2)C(=O)O)c(C)c1 [Compound 20, 3-{2-[1-Cyclopentylcarbamoyl-5-(pyridin-2-ylaminomethyl)-pyrrolidin-3-yloxy]-acetylamino}-2-(2,4,6-trimethyl-benzenesulfonylamino)-propionic acid] | 6.6 | < 10
4 | Cc1ccc(CNC(=O)N2C[C@H](OCC(=O)NC[C@H](NS(=O)(=O)c3c(C)cc(C)cc3C)C(=O)O)C[C@H]2CNc2ccccn2)cc1 [Compound 25, 3-{2-[1-(4-Methyl-benzylcarbamoyl)-5-(pyridin-2-ylaminomethyl)-pyrrolidin-3-yloxy]-acetylamino}-2-(2,4,6-trimethyl-benzenesulfonylamino)-propionic acid] | 18.1 | 10 to 500
5 | Cc1cc(C)c(S(=O)(=O)N[C@@H](CNC(=O)CO[C@@H]2C[C@@H](CNc3ccccn3)N(C(=O)CC(C)(C)C)C2)C(=O)O)c(C)c1 [Compound 31, 3-{2-[1-(3,3-Dimethyl-butyryl)-5-(pyridin-2-ylaminomethyl)-pyrrolidin-3-yloxy]-acetylamino}-2-(2,4,6-trimethyl-benzenesulfonylamino)-propionic acid] |  | < 10
6 | Cc1cc(C)c(S(=O)(=O)N[C@@H](CNC(=O)CO[C@@H]2C[C@@H](CNc3ccccn3)N(C(=O)CC3CCCC3)C2)C(=O)O)c(C)c1 [Compound 35, 3-{2-[1-(2-Cyclopentyl-acetyl)-5-(pyridin-2-ylaminomethyl)-pyrrolidin-3-yloxy]-acetylamino}-2-(2,4,6-trimethyl-benzenesulfonylamino)-propionic acid] |  | 10 to 500
7 | COc1cccc(CC(=O)N2C[C@H](OCC(=O)NC[C@H](NS(=O)(=O)c3c(C)cc(C)cc3C)C(=O)O)C[C@H]2CNc2ccccn2)c1 [Compound 36, 3-{2-[1-[2-(3-Methoxy-phenyl)-acetyl]-5-(pyridin-2-ylaminomethyl)-pyrrolidin-3-yloxy]-acetylamino}-2-(2,4,6-trimethyl-benzenesulfonylamino)-propionic acid] |  | 10 to 500
8 | CCC(=O)N1C[C@H](OCC(=O)NC[C@H](NS(=O)(=O)c2c(C)cc(C)cc2C)C(=O)O)C[C@H]1CNc1ccccn1 [Compound 38, 3-{2-[1-Propionyl-5-(pyridin-2-ylaminomethyl)-pyrrolidin-3-yloxy]-acetylamino}-2-(2,4,6-trimethyl-benzenesulfonylamino)-propionic acid] | 11.9 | 10 to 500
9 | Cc1cc(C)c(S(=O)(=O)N[C@@H](CNC(=O)CO[C@@H]2C[C@@H](CNc3ccccn3)N(C(=O)OCC(C)C)C2)C(=O)O)c(C)c1 [Compound 41, 4-{[2-Carboxy-2-(2,4,6-trimethyl-benzenesulfonylamino)-ethylcarbamoyl]-methoxy}-2-(pyridin-2-ylaminomethyl)-pyrrolidine-1-carboxylic acid isobutyl ester] |  | < 10
10 | C#CCOC(=O)N1C[C@H](OCC(=O)NC[C@H](NS(=O)(=O)c2c(C)cc(C)cc2C)C(=O)O)C[C@H]1CNc1ccccn1 [Compound 44, 4-{[2-Carboxy-2-(2,4,6-trimethyl-benzenesulfonylamino)-ethylcarbamoyl]-methoxy}-2-(pyridin-2-ylaminomethyl)-pyrrolidine-1-carboxylic acid prop-2-ynyl ester] | 5.8 | < 10
11 | Cc1cc(C)c(S(=O)(=O)N[C@@H](CNC(=O)CO[C@@H]2C[C@@H](CNc3ccccn3)N(C(=S)Nc3ccc(-c4c5ccc(=O)cc-5oc5cc(O)ccc45)c(C(=O)O)c3)C2)C(=O)O)c(C)c1 [Compound 61, 5-{[4-{[2-Carboxy-2-(2,4,6-trimethyl-benzenesulfonylamino)-ethylcarbamoyl]-methoxy}-2-(pyridin-2-ylaminomethyl)-pyrrolidine-1-carbothioyl]-amino}-2-(6-hydroxy-3-oxo-3H-xanthen-9-yl)-benzoic acid] |  | 10 to 500
12 | Cc1cc(C)c(S(=O)(=O)N[C@@H](CNC(=O)CO[C@@H]2C[C@@H](CNc3ccccn3)N(C(=O)C(F)(F)C(F)(F)C(F)(F)C(F)(F)C(F)(F)C(F)(F)C(F)(F)F)C2)C(=O)O)c(C)c1 [Compound 63, 3-{2-[1-(2,2,3,3,4,4,5,5,6,6,7,7,8,8,8-Pentadecafluoro-octanoyl)-5-(pyridin-2-ylaminomethyl)-pyrrolidin-3-yloxy]-acetylamino}-2-(2,4,6-trimethyl-benzenesulfonylamino)-propionic acid] |  | > 500
13 | CS(=O)(=O)NC(CNC(=O)COC1CC(CNc2ccccn2)N(C(=O)OCc2ccccc2)C1)C(=O)O (centres unmarked) [Compound 69, 4-[(2-Carboxy-2-methanesulfonylamino-ethylcarbamoyl)-methoxy]-2-(pyridin-2-ylaminomethyl)-pyrrolidine-1-carboxylic acid benzyl ester] |  | > 500
14 | O=C(CO[C@@H]1C[C@@H](CNc2ccccn2)N(C(=O)OCc2ccccc2)C1)NC[C@H](NC(=O)CCc1ccccc1)C(=O)O [Compound 74, 4-{[2-Carboxy-2-(3-phenyl-propionylamino)-ethylcarbamoyl]-methoxy}-2-(pyridin-2-ylaminomethyl)-pyrrolidine-1-carboxylic acid benzyl ester] |  | 10 to 500
15 | O=C(CO[C@@H]1C[C@@H](CNc2ccccn2)N(C(=O)OCc2ccccc2)C1)NC[C@H](NC(=O)Nc1ccc(-c2ccccc2)cc1)C(=O)O [Compound 80, 4-{[2-(3-Biphenyl-4-yl-ureido)-2-carboxy-ethylcarbamoyl]-methoxy}-2-(pyridin-2-ylaminomethyl)-pyrrolidine-1-carboxylic acid benzyl ester] |  | 10 to 500
16 | N[C@@H](CNC(=O)CO[C@@H]1C[C@@H](CNc2ccccn2)N(C(=O)OCc2ccccc2)C1)C(=O)O [Compound 81, 4-[(2-Amino-2-carboxy-ethylcarbamoyl)-methoxy]-2-(pyridin-2-ylaminomethyl)-pyrrolidine-1-carboxylic acid benzyl ester] |  | > 500
17 | Cc1cc(C)c(CNC(CNC(=O)COC2CC(CNc3ccccn3)N(C(=O)OCc3ccccc3)C2)C(=O)O)c(C)c1 (centres unmarked) [Compound 82, 4-{[2-Carboxy-2-(2,4,6-trimethyl-benzylamino)-ethylcarbamoyl]-methoxy}-2-(pyridin-2-ylaminomethyl)-pyrrolidine-1-carboxylic acid benzyl ester] |  | > 500
18 | O=C(CO[C@@H]1C[C@@H](CNc2ccccn2)N(C(=O)OCc2ccccc2)C1)NC[C@H](NC(=O)c1cc(C(F)(F)F)cc(C(F)(F)F)c1)C(=O)O [Compound 86, 4-{[2-(3,5-Bis-trifluoromethyl-benzoylamino)-2-carboxy-ethylcarbamoyl]-methoxy}-2-(pyridin-2-ylaminomethyl)-pyrrolidine-1-carboxylic acid benzyl ester] |  | > 500
19 | COc1cccc(OC)c1C(=O)N[C@@H](CNC(=O)CO[C@@H]1C[C@@H](CNc2ccccn2)N(C(=O)OCc2ccccc2)C1)C(=O)O [Compound 90, 4-{[2-Carboxy-2-(2,6-dimethoxy-benzoylamino)-ethylcarbamoyl]-methoxy}-2-(pyridin-2-ylaminomethyl)-pyrrolidine-1-carboxylic acid benzyl ester] |  | < 10
20 | O=C(CO[C@@H]1C[C@@H](CNc2ccccn2)N(C(=O)OCc2ccccc2)C1)NC[C@H](NC(=O)C1CCCCC1)C(=O)O [Compound 91, 4-{[2-Carboxy-2-(cyclohexanecarbonyl-amino)-ethylcarbamoyl]-methoxy}-2-(pyridin-2-ylaminomethyl)-pyrrolidine-1-carboxylic acid benzyl ester] |  | < 10
21 | Cc1cccc(C)c1C(=O)N[C@@H](CNC(=O)CO[C@@H]1C[C@@H](CNc2ccccn2)N(C(=O)OCc2ccccc2)C1)C(=O)O [Compound 92, 4-{[2-Carboxy-2-(2,6-dimethyl-benzoylamino)-ethylcarbamoyl]-methoxy}-2-(pyridin-2-ylaminomethyl)-pyrrolidine-1-carboxylic acid benzyl ester] |  | < 10

Reference: patent US8501787B2, “Compounds for the inhibition of angiogenesis and use thereof” (Shire Orphan Therapies GmbH, priority 2004, dated 2013)
